Source: paper PMC6933707, “Palmitoylethanolamide counteracts substance P-induced mast cell activation in vitro by stimulating diacylglycerol lipase activity” (Journal of Neuroinflammation, 2019)
Values joined by “and” are separate entries in the source; they are usually repeats but may differ in a detail not shown here. Equal entries are not always repeated.

Assays:
[1] = target: T1, DAGL-β (Rattus norvegicus, UniProt P0C1S9); assay: DAGL-β enzyme activity assay (RBL-2H3 cell membranes); type: biochemical; settings: 25 μM
T1 construct: constitutive DAGL-β activity in RBL-2H3 cell membranes; endogenous in cells; host or cells: RBL-2H3
T1 sequence (P0C1S9 1-668): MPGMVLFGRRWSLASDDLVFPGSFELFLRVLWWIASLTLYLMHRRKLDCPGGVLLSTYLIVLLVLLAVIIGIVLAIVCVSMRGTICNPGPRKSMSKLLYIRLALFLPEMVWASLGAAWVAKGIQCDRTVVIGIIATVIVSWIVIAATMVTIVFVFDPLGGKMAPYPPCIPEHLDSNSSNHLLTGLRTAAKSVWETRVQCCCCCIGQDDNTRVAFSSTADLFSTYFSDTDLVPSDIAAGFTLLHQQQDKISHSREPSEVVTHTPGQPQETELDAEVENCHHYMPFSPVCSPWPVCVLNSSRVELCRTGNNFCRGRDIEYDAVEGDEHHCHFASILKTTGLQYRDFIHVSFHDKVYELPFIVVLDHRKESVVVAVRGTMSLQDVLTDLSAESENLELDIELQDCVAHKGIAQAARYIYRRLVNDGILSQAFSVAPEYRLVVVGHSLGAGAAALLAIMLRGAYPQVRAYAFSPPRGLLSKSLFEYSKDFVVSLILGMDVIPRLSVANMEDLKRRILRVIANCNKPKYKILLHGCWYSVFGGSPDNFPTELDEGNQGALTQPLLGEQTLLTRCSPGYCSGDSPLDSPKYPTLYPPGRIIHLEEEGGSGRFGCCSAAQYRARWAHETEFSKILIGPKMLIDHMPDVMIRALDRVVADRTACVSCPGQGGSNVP
Protocol: DAGL-β enzyme activity was assessed by using membrane preparations (100 μg of protein) obtained from RBL-2H3 cells, and 1-[^14C]oleoyl-2-arachidonoylglycerol (1.0 mCi/mmol, 50 μM, [40, 41]), as substrate in the presence of vehicle or increasing concentrations of PEA (1–25 μM) in Tris-HCl 50 mM pH 7.4 or in Tris-HCl 50 mM pH 7.4 and CaCl2 10 mM. After the incubation (20 min at 37 °C), the protocol followed the same procedures as above reported for DAGL-α enzyme activity assay. Data were expressed as % of activity of DAGL-β.

[2] = system: RBL-2H3 cells; assay: LC-APCI-MS measurement of endogenous AEA, 2-AG and PEA levels; type: cell-based, rat; settings: for increase of endogenous levels of 2-AG: 15 min
Protocol: RBL-2H3 cells (9 × 10^5 cells/well) were stimulated with SP (10 μM) and treated with PEA (10 μM) in the presence and absence of OMDM188 (10 μM), for 15 min at 37 °C in 5% CO2 atmosphere. After 15 min, cells and supernatants were collected and homogenized in a solution of CHCl3/CH3OH/Tris-HCl 50 mM pH 7.4 (2:1:1, v/v) containing 10 pmol of [^2H]8-AEA, [^2H]5-2-AG and [^2H]4-PEA as internal standards. The lipid-containing organic phase was dried down, weighed and pre-purified by open-bed chromatography on silica gel. Fractions obtained by eluting the column with a solution of CHCl3/CH3OH (90:10 by vol.) were analyzed by Liquid Chromatography-Atmospheric Pressure Chemical Ionization-Mass Spectrometry (LC-APCI-MS) using a Shimadzu (Shimadzu, Kyoto, Japan) HPLC apparatus (LC-10ADVP) coupled to a Shimadzu (LCMS-2020) quadrupole MS via a Shimadzu APCI interface. LC-APCI-MS analyses of 2-AG and PEA were carried out in the selected ion monitoring mode, using m/z values of 356 and 348 (molecular ions + 1 for deuterated and undeuterated AEA), 384.35 and 379.35 (molecular ions + 1 for deuterated and undeuterated 2-AG), and 304 and 300 (molecular ions + 1 for deuterated and undeuterated PEA). AEA, 2-AG and PEA levels were calculated on the basis of their area ratio with the internal deuterated standard signal areas, and their amounts (pmol) were normalized per mg of lipid extract.

[3] = target: T2, human CB2 receptor (Homo sapiens, UniProt P34972); assay: cAMP Hunter functional activity assay at the CB2 receptors; type: cell-based; set-up: host or cells: CHO-K1; settings: 10 μM, highest concentration tested, CHO-K1 cells overexpressing human CB2
Protocol: The cAMP Hunter™ eXpress G protein-coupled receptor (GPCR) assay was performed in Chinese Hamster Ovary (CHO)-Kl cells overexpressing the human CB2 receptor. Gi-coupled cAMP modulation was measured following the manufacturer’s protocol (DiscoverX, Fremont, CA). CHO-K1 cells overexpressing the human CB2 receptor were plated into a 96-well plate (3× 10^4 cells/well) and incubated overnight at 37 °C in 5% CO2 atmosphere. The media were aspirated and replaced with 30 μl of assay buffer. Cells were incubated 30 min at 37 °C with 15 μl of 3× concentration-response solutions of 2-AG (0.01–50 μM), or PEA (10 μM), prepared in presence of cell assay buffer containing a 3× of 25 μM NKH-477 solution (a water-soluble analog of Forskolin) to stimulate adenylate cyclase and enhance basal cAMP levels. We also investigated the effect of PEA on 2-AG receptor activation by co-incubation. Therefore, cells were also incubated 30 min at 37 °C with 2-AG and PEA (10 μM) in the presence of NKH-477 to stimulate adenylate cyclase and enhance cAMP levels. […] Relative luminescence units (RLU) were measured by using a GloMax Multi Detection System (Promega Italia). […] The percentage of response was calculated by using the following formula: % RESPONSE = 100% × (1-(RLU of test compound-RLU of NKH-477 positive control)/(RLU of vehicle-RLU of NKH-477 positive control).

[4] = target: T2, human CB2 receptor; assay: Competition binding assay for CB2 receptors ([3H]-CP-55,940 displacement); set-up: purchased Perkin Elmer; host or cells: HEK-293
Text: Data were expressed as Ki (μM) and calculated by applying the Cheng-Prusoff equation to the IC50 values for the displacement of the bound radioligand.

T2 sequence (P34972 whole entry): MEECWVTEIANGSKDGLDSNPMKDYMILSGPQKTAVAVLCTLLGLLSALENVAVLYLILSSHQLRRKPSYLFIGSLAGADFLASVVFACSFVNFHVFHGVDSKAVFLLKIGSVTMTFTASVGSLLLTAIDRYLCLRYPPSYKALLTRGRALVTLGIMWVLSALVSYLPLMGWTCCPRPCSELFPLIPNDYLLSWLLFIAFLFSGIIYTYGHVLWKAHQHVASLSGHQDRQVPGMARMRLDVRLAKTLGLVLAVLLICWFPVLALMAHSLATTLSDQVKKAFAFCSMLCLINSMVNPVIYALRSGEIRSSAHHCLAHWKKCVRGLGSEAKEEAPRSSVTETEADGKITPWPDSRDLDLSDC

`CCCCCCCCCCCCCCCC(=O)NCCO` [PEA, Palmitoylethanolamide] was tested, and the “stimulation of the activity of DAGL-β” value [1] was 33 ± 5.43%, the “increase of endogenous levels of 2-AG” value ([2]; PEA 10 μM alone, in the absence of SP, compared to vehicle-treated cells) was 1.8 fold and ~ 2 fold and the “estimated increase of 2-AG concentration in cells” value ([2]; SP-stimulated cells treated with PEA 10 μM vs unstimulated cells) was 0.5 µM. The “increase of endogenous levels of 2-AG” value ([2]; SP-stimulated cells treated with PEA 10 μM, compared to SP-stimulated cells treated with PEA vehicle) was 1.6 fold and ~ 2 fold, the “increase of endogenous levels of 2-AG” value ([2]; SP-stimulated cells treated with PEA 10 μM, compared to cells only treated with vehicle) was 1.4 fold and the “endogenous levels of AEA” value ([2]; SP-stimulated cells treated with PEA 10 μM, vs SP + PEA vehicle) was “no statistically significant increase”. The “estimated concentration of 2-AG in cells” value ([2]; SP-stimulated cells treated with PEA 10 μM, estimated from 1 mg lipids per 10 mg (10 μl) cell pellet, 0.7 μM in unstimulated cells) was “about 1.2 μM”, the “increase of levels of AEA” value ([2]; unstimulated cells following PEA treatment (discussion)) was ~ 2 fold and the “endogenous levels of AEA” value ([2]; unstimulated cells treated with PEA alone 10 μM, vs vehicle) was “statistically significant increase”. For the same compound, the “effect on NKH-477-induced cAMP levels (CB2 activation)” value [3] was “failed at decreasing cAMP levels”, the “[3H]-CP55,940 displacement” value ([4]; PEA 10 μM per se, WIN55,212-2 10 μM = 100% displacement) was 33.51 ± 5.28% and the Ki ([4]; compound alone, displacement of [3H]-CP-55,940, HEK-293 membranes, 90 min 30 °C) was over 10 µM.
